Where “and” joins values, the source holds several entries; their conditions need not be identical. Equal values may be shown once.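 Results reflect a 48-hour exposure of cells in 96-well plates to compound at five concentrations. GI50 = concentration required for 50% inhibition of growth.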 Calls of active or inactive are those of the source. Rule as the data show it: active = GI50 up to about 1.1 µM and inactive = higher.
Tests used:
Assay in all cases: NCI anticancer screen, dose series, 48 h
SNB-78 = system: SNB-78
IGROV-1 = system: IGROV-1
HCC 2998 = system: HCC 2998
LXFL 529 = system: LXFL 529
A498 = system: A498
SNB-19 = system: SNB-19
HOP-62 = system: HOP-62
HL-60 = system: HL-60
UACC-257 = system: UACC-257
A549 = system: A549
DMS-273 = system: DMS-273
M19-MEL = system: M19-MEL
SK-OV-3 = system: SK-OV-3
RPMI-8226 = system: RPMI-8226
SF-539 = system: SF-539
CAKI-1 = system: CAKI-1
DMS-114 = system: DMS-114
COLO 205 = system: COLO 205
SR = system: SR
SNB-75 = system: SNB-75
EKVX = system: EKVX
U-251 = system: U-251
SF-268 = system: SF-268
NCI-H226 = system: NCI-H226
OVCAR-3 = system: OVCAR-3
NCI-H522 = system: NCI-H522
OVCAR-4 = system: OVCAR-4
OVCAR-8 = system: OVCAR-8
NCI-H460 = system: NCI-H460
UO-31 = system: UO-31
ACHN = system: ACHN
DLD-1 = system: DLD-1
M14 = system: M14
HOP-18 = system: HOP-18
SK-MEL-2 = system: SK-MEL-2
MOLT-4 = system: MOLT-4
RXF 631 = system: RXF 631
HCT-15 = system: HCT-15
SK-MEL-28 = system: SK-MEL-28
UACC-62 = system: UACC-62
SK-MEL-5 = system: SK-MEL-5
Malme-3M = system: Malme-3M
KM-20L2 = system: KM-20L2
KM12 = system: KM12
SN12C = system: SN12C
K562 = system: K562
HCT-116 = system: HCT-116
SW-620 = system: SW-620
RXF 393 = system: RXF 393
TK-10 = system: TK-10
786-0 = system: 786-0
MDA-MB-435 = system: MDA-MB-435
BT-549 = system: BT-549
XF498 = system: XF498
MDA-N = system: MDA-N
MCF7 = system: MCF7
MDA-MB-231 = system: MDA-MB-231
LOX IMVI = system: LOX IMVI
T47D = system: T47D
DU-145 = system: DU-145
Hs-578T = system: Hs-578T
PC-3 = system: PC-3
SF-295 = system: SF-295
HT-29 = system: HT-29
CCRF-CEM = system: CCRF-CEM
OVCAR-5 = system: OVCAR-5
HOP-92 = system: HOP-92
NCI-H23 = system: NCI-H23

Measured: GI50

Nc1ccn([C@@H]2C[C@H](CO)[C@@H](O)[C@H]2O)c(=O)n1
inactive: SNB-78 > 57.7 µM | IGROV-1 > 57.7 µM | HCC 2998 > 57.7 µM | LXFL 529 > 57.7 µM | A498 > 57.7 µM | SNB-19 > 57.7 µM | HOP-62 > 57.7 µM | HL-60 > 57.7 µM | UACC-257 > 57.7 µM | A549 > 57.7 µM | DMS-273 > 57.7 µM | M19-MEL > 57.7 µM | SK-OV-3 > 57.7 µM | RPMI-8226 > 57.7 µM | SF-539 > 57.7 µM | CAKI-1 > 57.7 µM | DMS-114 > 57.7 µM | COLO 205 > 57.7 µM | SR > 57.7 µM | SNB-75 > 57.7 µM | EKVX > 57.7 µM | U-251 > 57.7 µM | SF-268 > 57.7 µM | NCI-H226 > 57.7 µM | OVCAR-3 > 57.7 µM | NCI-H522 > 57.7 µM | OVCAR-4 > 57.7 µM | OVCAR-8 > 57.7 µM | NCI-H460 > 57.7 µM | UO-31 > 57.7 µM | ACHN > 57.7 µM | DLD-1 > 57.7 µM | M14 > 57.7 µM | HOP-18 > 57.7 µM | SK-MEL-2 > 57.7 µM | MOLT-4 > 57.7 µM | RXF 631 > 57.7 µM | SK-MEL-28 > 57.7 µM | UACC-62 > 57.7 µM | SK-MEL-5 > 57.7 µM | Malme-3M > 57.7 µM | KM-20L2 > 57.7 µM | KM12 > 57.7 µM | SN12C > 57.7 µM | K562 > 57.7 µM | HCT-116 > 57.7 µM | SW-620 > 57.7 µM | RXF 393 > 57.7 µM | TK-10 > 57.7 µM | 786-0 > 57.7 µM
> 57.7 µM: HCT-15

C/C=C(\CCC1NCCc2c1[nH]c1ccccc21)[Si](C)(C)C (stereo unspecified)
inactive: SNB-78 4.9 µM and 9.31 µM | LXFL 529 1.78 µM and 5.01 µM | MDA-MB-435 3.37 µM | A498 2.67 µM and 6.5 µM | BT-549 10.8 µM | HOP-62 11.9 µM and 14.5 µM | A549 10.1 µM and 6.59 µM | XF498 1.41 µM and 1.8 µM | MDA-N 2.09 µM | MCF7 2.02 µM | SK-OV-3 13.4 µM and 10.1 µM | MDA-MB-231 2.14 µM | COLO 205 14.3 µM and 1.8 µM | SNB-75 5.97 µM and 6.5 µM | EKVX 14.7 µM and 8.41 µM | LOX IMVI 2.28 µM and 20.3 µM | SF-268 11.2 µM and 5.96 µM | NCI-H226 10.9 µM and 7.76 µM | OVCAR-4 3.03 µM and 5.81 µM | OVCAR-8 4.16 µM and 7.82 µM | T47D 2.22 µM | DU-145 12.6 µM | Hs-578T 2.05 µM | DLD-1 3.49 µM and 6.24 µM | HOP-18 6.79 µM and 20.1 µM | MOLT-4 2.74 µM and 4.35 µM | RXF 631 5.05 µM and 7.28 µM | UACC-62 5.86 µM and 5.27 µM | Malme-3M 1.77 µM and 1.21 µM | SN12C 5.89 µM and 3.32 µM | K562 3.57 µM and 6.67 µM | PC-3 5.01 µM
18.7 µM and 2.25 µM: HCT-15

C1=Cc2nc1c(-c1ccccc1)c1nc(c(-c3ccccc3)c3ccc([nH]3)c(-c3ccccc3)c3ccc([nH]3)c2-c2ccccc2)C=C1 [TETRAPHENYLPORPHYRIN]
inactive: SNB-78 > 100 µM | IGROV-1 > 100 µM | HCC 2998 > 100 µM | LXFL 529 > 100 µM | A498 > 100 µM | SNB-19 > 100 µM | HOP-62 > 100 µM | HL-60 > 100 µM | UACC-257 > 100 µM | A549 > 100 µM | DMS-273 > 100 µM | SF-295 > 100 µM | M19-MEL > 100 µM | SK-OV-3 > 100 µM | HT-29 > 100 µM | RPMI-8226 > 100 µM | CCRF-CEM > 100 µM | SF-539 > 100 µM | CAKI-1 > 100 µM | DMS-114 > 100 µM | COLO 205 > 100 µM | SR > 100 µM | SNB-75 > 100 µM | EKVX > 100 µM | U-251 > 100 µM | LOX IMVI > 100 µM | SF-268 > 100 µM | NCI-H226 > 100 µM | OVCAR-3 > 100 µM | OVCAR-5 > 100 µM | NCI-H522 > 100 µM | OVCAR-4 > 100 µM | OVCAR-8 > 100 µM | HOP-92 > 100 µM | NCI-H460 > 100 µM | UO-31 > 100 µM | NCI-H23 > 100 µM | ACHN > 100 µM | DLD-1 > 100 µM | M14 > 100 µM | HOP-18 > 100 µM | SK-MEL-2 > 100 µM | MOLT-4 > 100 µM | RXF 631 > 100 µM | SK-MEL-28 > 100 µM | UACC-62 > 100 µM | SK-MEL-5 > 100 µM | Malme-3M > 100 µM | KM-20L2 > 100 µM | KM12 > 100 µM | SN12C > 100 µM | K562 > 100 µM | HCT-116 > 100 µM | SW-620 > 100 µM | TK-10 > 100 µM | 786-0 > 100 µM
> 100 µM: HCT-15

Reference: ChEMBL document CHEMBL1201862, “PubChem BioAssay data set” (2004)
